Source: US6563014B2, “Self-contained system for sustained viral replication” (Albert Einstein College of Medicine of Yeshiva University, priority 1999, dated 2003)

Tested on: HIV-1
Assay: Effect of protease inhibitor treatment on plasma HIV RNA levels in transgenic mice
Type: in vivo
Source text: (iv) Quantitation of plasma HIV RNA levels: HIV RNA in the mouse plasma was quantitated by using the Roche AMPLICOR HIV-1 MONITOR™ kits (Roche Diagnostic Systems, Branchburg, N.J.) which can measure virion associated HIV-1 RNA in plasma at concentrations as low as 400 RNA copies/ml as described (Pettoello-Mantovani, M., et al., J. Infect. Dis.1 77:337-346, 1998). After plasma was isolated from the peripheral blood of the JR-CSF TG mice, an internal HIV quantitation standard (QS), a synthetic RNA molecule with primer binding sites identical to the HIV target and an internal probe sequence specific to the QS RNA molecule, was added to 200 μl of each plasma sample. RNA was then extracted from the plasma samples with a Lysis Reagent containing guanidine thiocyanate, precipitated with isopropanol, resuspended in reaction buffer and a 142 base pair sequence in the HIV gag gene was amplified by reverse transcription and PCR using rtth pol and biotinylated primers SK431 and SK462. In order to prevent PCR product contamination, dUTP was incorporated during the PCR reaction and then all of the samples were treated with AmpErase prior to PCR to eliminate carryover of any dUTP-containing PCR product. The biotinylated HIV and QS amplicons were quantitated by detection in separate wells of a microwell plate coated with HIV-specific and QS-specific oligonucleotide probes, respectively, using avidin-horseradish peroxidase conjugate and a calorimetric reaction for horseradish peroxidase. The HIV and QS amplicons were measured in a dynamic range from 400 to 750,000 copies/ml by performing 5-fold serial dilutions of the amplicons in the HIV-specific and QS-specific wells of the microplate (rows A to F and G to H, respectively). The HIV RNA copy number was then calculated from the known input copy number of the QS RNA, the optical densities at 450 nm of the HIV-well and the QS-well that fell within a defined range, and the dilution factors associated with the selected wells.
First, the mean plasma viral levels in the hu-CD4/CCR5/JRCSF TG mice are higher that in the JR-CSF TG mice. […]

[1] = hu-CD4/CCR5/JRCSF TG mice, FIG. 14

## CC(C)c1nc(CN(C)C(=O)N[C@H](C(=O)N[C@@H](Cc2ccccc2)C[C@H](O)[C@H](Cc2ccccc2)NC(=O)OCc2cncs2)C(C)C)cs1 [protease inhibitor, ritonavir]
JR-CSF TG mice
  plasma viremia after treatment with a protease inhibitor: did not decrease and actually went up
[1]
  plasma HIV RNA levels after the protease inhibitor was stopped: went back up
  plasma HIV RNA levels after treatment with the protease inhibitor: markedly decreased
